ChEMBL document CHEMBL1158270, “Triangulynes A-H and trangulynic acid, new cytotxic polyacetylenes from the marine sponge Pellina triangulata” (1996)

Assays:
Type in all cases: functional
[1] = test system: RXF 393; test: Cytotoxicity against human RXF393 cells
[2] = test system: MOLT-4; test: Cytotoxicity against human MOLT4 cells
[3] = test system: HCT-15; test: Cytotoxicity against human HCT15 cells
[4] = test system: HOP-62; test: Cytotoxicity against human HOP62 cells
[5] = test system: SNB-19; test: Cytotoxicity against human SNB19 cells
[6] = test system: NCI-H23; test: Cytotoxicity against human NCI-H23 cells
[7] = test system: SR; test: Cytotoxicity against human SR cells
[8] = test system: OVCAR-3; test: Cytotoxicity against human OVCAR-3 cells
[9] = test system: U-251; test: Cytotoxicity against human U251 cells
[10] = test system: KM12; test: Cytotoxicity against human KM12 cells
[11] = test system: NCI-H322M; test: Cytotoxicity against human NCI-H322M cells
[12] = test system: MCF7; test: Cytotoxicity against human MCF7 cells
[13] = test system: UACC-257; test: Cytotoxicity against human UACC257 cells
[14] = test system: MDA-MB-231; test: Cytotoxicity against human MDA-MB-231 cells
[15] = test system: COLO 205; test: Cytotoxicity against human COLO205 cells
[16] = test system: OVCAR-5; test: Cytotoxicity against human OVCAR5 cells
[17] = test system: UACC-62; test: Cytotoxicity against human UACC62 cells
[18] = test system: MDA-N; test: Cytotoxicity against human MDA-N cells
[19] = test system: HOP-92; test: Cytotoxicity against human HOP92 cells
[20] = test system: Malme-3M; test: Cytotoxicity against human MALME-3M cells
[21] = test system: EKVX; test: Cytotoxicity against human EKVX cells
[22] = test system: RPMI-8226; test: Cytotoxicity against human RPMI8226 cells
[23] = test system: A549; test: Cytotoxicity against human A549 cells
[24] = test system: A498; test: Cytotoxicity against human A498 cells
[25] = test system: SNB-75; test: Cytotoxicity against human SNB75 cells
[26] = test system: TK-10; test: Cytotoxicity against human TK10 cells
[27] = test system: NCI-H522; test: Cytotoxicity against human NCI-H522 cells
[28] = test system: LOX IMVI; test: Cytotoxicity against human LOXIMVI cells
[29] = test system: M14; test: Cytotoxicity against human M14 cells
[30] = test system: SF-295; test: Cytotoxicity against human SF295 cells
[31] = test system: BT-549; test: Cytotoxicity against human BT549 cells
[32] = test system: SN12C; test: Cytotoxicity against human SN12C cells
[33] = test system: SK-MEL-5; test: Cytotoxicity against human SK-MEL-5 cells
[34] = test system: SK-MEL-2; test: Cytotoxicity against human SK-MEL-2 cells
[35] = test system: OVCAR-4; test: Cytotoxicity against human OVCAR4 cells
[36] = test system: SK-MEL-28; test: Cytotoxicity against human SK-MEL-28 cells
[37] = test system: SF-539; test: Cytotoxicity against human SF539 cells
[38] = test system: UO-31; test: Cytotoxicity against human UO31 cells
[39] = test system: PC-3; test: Cytotoxicity against human PC3 cells
[40] = test system: HT-29; test: Cytotoxicity against human HT29 cells
[41] = Cytotoxicity against human MCF7/ADR cells; details: NCI/ADR-RES
[42] = test system: ACHN; test: Cytotoxicity against human ACHN cells
[43] = test system: CAKI-1; test: Cytotoxicity against human Caki1 cells
[44] = test system: 786-0; test: Cytotoxicity against human 786-0 cells
[45] = test system: DU-145; test: Cytotoxicity against human DU145 cells
[46] = read-out: pLC50 (the source's name) (converted)

C#C[C@H](O)/C=C/CCCCCCCCCC/C=C\CCCCCCC[C@H](O)C#CC#CC#CCO [TRIANGULYNE A]
GI50 [1]: 0.339 µM
CC50 [1, 46]: 18.2 µM
TGI ([1]; read-out: pTGI (converted)): 1.29 µM
GI50 [2]: 0.209 µM
CC50 [2, 46]: 67.6 µM
TGI ([2]; read-out: pTGI (converted)): 0.813 µM
GI50 [3]: 0.407 µM
LC50 [3]: 7.24 µM
TGI ([3]; read-out: pTGI (converted)): 2.09 µM
GI50 [4]: 1.58 µM
CC50 [4, 46]: 75.9 µM
TGI ([4]; read-out: pTGI (converted)): 5.37 µM
GI50 [5]: 3.39 µM
CC50 [5, 46]: 52.5 µM
TGI ([5]; read-out: pTGI (converted)): 12 µM
GI50 [6]: 0.257 µM
CC50 [6, 46]: 14.1 µM
TGI ([6]; read-out: pTGI (converted)): 1.29 µM
GI50 [7]: 0.182 µM
LC50 [7]: 100 µM
TGI ([7]; read-out: pTGI (converted)): 3.24 µM
GI50 [8]: 0.372 µM
CC50 [8, 46]: 5.25 µM
TGI ([8]; read-out: pTGI (converted)): 1.51 µM
GI50 [9]: 0.813 µM
CC50 [9, 46]: 5.25 µM
TGI ([9]; read-out: pTGI (converted)): 2.19 µM
GI50 [10]: 0.17 µM
LC50 [10]: 1.1 µM
TGI ([10]; read-out: pTGI (converted)): 0.38 µM
GI50 [11]: 3.31 µM
CC50 [11, 46]: 57.5 µM
TGI ([11]; read-out: pTGI (converted)): 12 µM
GI50 [12]: 1.58 µM
CC50 [12, 46]: 25.7 µM
TGI ([12]; read-out: pTGI (converted)): 6.03 µM
GI50 [13]: 0.513 µM
CC50 [13, 46]: 8.13 µM
TGI ([13]; read-out: pTGI (converted)): 2.09 µM
GI50 [14]: 0.229 µM
CC50 [14, 46]: 9.12 µM
TGI ([14]; read-out: pTGI (converted)): 0.603 µM
GI50 [15]: 0.2 µM
LC50 [15]: 2.29 µM
TGI ([15]; read-out: pTGI (converted)): 0.417 µM
GI50 [16]: 4.47 µM
CC50 [16, 46]: 34.7 µM
TGI ([16]; read-out: pTGI (converted)): 12 µM
GI50 [17]: 0.229 µM
CC50 [17, 46]: 9.12 µM
TGI ([17]; read-out: pTGI (converted)): 0.646 µM
GI50 [18]: 0.24 µM
CC50 [18, 46]: 8.51 µM
TGI ([18]; read-out: pTGI (converted)): 3.09 µM
GI50 [19]: 0.324 µM
CC50 [19, 46]: 15.1 µM
TGI ([19]; read-out: pTGI (converted)): 1.2 µM
GI50 [20]: 0.251 µM
LC50 [20]: 1.91 µM
TGI ([20]; read-out: pTGI (converted)): 0.646 µM
GI50 [21]: 0.871 µM
CC50 [21, 46]: 6.76 µM
TGI ([21]; read-out: pTGI (converted)): 2.4 µM
GI50 [22]: 0.0309 µM
LC50 [22]: 100 µM
TGI ([22]; read-out: pTGI (converted)): 1 µM
GI50 [23]: 0.339 µM
CC50 [23, 46]: 47.9 µM
TGI ([23]; read-out: pTGI (converted)): 5.75 µM
GI50 [24]: 0.525 µM
CC50 [24, 46]: 5.25 µM
TGI ([24]; read-out: pTGI (converted)): 1.58 µM
GI50 [25]: 2 µM
CC50 [25, 46]: 15.8 µM
TGI ([25]; read-out: pTGI (converted)): 6.61 µM
GI50 [26]: 0.646 µM
CC50 [26, 46]: 11 µM
TGI ([26]; read-out: pTGI (converted)): 2.09 µM
GI50 [27]: 0.151 µM
CC50 [27, 46]: 0.646 µM
TGI ([27]; read-out: pTGI (converted)): 0.38 µM
GI50 [28]: 0.141 µM
LC50 [28]: 7.94 µM
TGI ([28]; read-out: pTGI (converted)): 0.363 µM
GI50 [29]: 0.158 µM
LC50 [29]: 3.47 µM
TGI ([29]; read-out: pTGI (converted)): 0.813 µM
GI50 [30]: 2.88 µM
CC50 [30, 46]: 51.3 µM
TGI ([30]; read-out: pTGI (converted)): 9.55 µM
GI50 [31]: 0.794 µM
CC50 [31, 46]: 11 µM
TGI ([31]; read-out: pTGI (converted)): 2.4 µM
GI50 [32]: 1.41 µM
CC50 [32, 46]: 32.4 µM
TGI ([32]; read-out: pTGI (converted)): 11 µM
GI50 [33]: 0.0724 µM
CC50 [33, 46]: 0.479 µM
TGI ([33]; read-out: pTGI (converted)): 0.2 µM
GI50 [34]: 0.251 µM
CC50 [34, 46]: 7.76 µM
TGI ([34]; read-out: pTGI (converted)): 0.891 µM
GI50 [35]: 0.851 µM
CC50 [35, 46]: 38 µM
TGI ([35]; read-out: pTGI (converted)): 6.31 µM
GI50 [36]: 0.708 µM
CC50 [36, 46]: 12 µM
TGI ([36]; read-out: pTGI (converted)): 2.29 µM
GI50 [37]: 1.1 µM
CC50 [37, 46]: 19.1 µM
TGI ([37]; read-out: pTGI (converted)): 3.31 µM
GI50 [38]: 1.29 µM
CC50 [38, 46]: 5.5 µM
TGI ([38]; read-out: pTGI (converted)): 2.69 µM
GI50 [39]: 0.191 µM
CC50 [39, 46]: 10 µM
TGI ([39]; read-out: pTGI (converted)): 1.1 µM
GI50 [40]: 0.363 µM
LC50 [40]: 3.63 µM
TGI ([40]; read-out: pTGI (converted)): 1.29 µM
GI50 [41]: 0.302 µM
CC50 [41, 46]: 32.4 µM
TGI ([41]; read-out: pTGI (converted)): 5.13 µM
GI50 [42]: 0.776 µM
CC50 [42, 46]: 32.4 µM
TGI ([42]; read-out: pTGI (converted)): 7.24 µM
GI50 [43]: 0.251 µM
CC50 [43, 46]: 3.39 µM
TGI ([43]; read-out: pTGI (converted)): 0.676 µM
GI50 [44]: 0.288 µM
CC50 [44, 46]: 3.98 µM
TGI ([44]; read-out: pTGI (converted)): 1.1 µM
GI50 [45]: 1.41 µM
CC50 [45, 46]: 18.2 µM
TGI ([45]; read-out: pTGI (converted)): 5.5 µM
